Each structure is given as a SMILES string. A value given as a limit tells only on which side of the number the result lay.

hMC2 receptor, sequence (Q01718 whole entry): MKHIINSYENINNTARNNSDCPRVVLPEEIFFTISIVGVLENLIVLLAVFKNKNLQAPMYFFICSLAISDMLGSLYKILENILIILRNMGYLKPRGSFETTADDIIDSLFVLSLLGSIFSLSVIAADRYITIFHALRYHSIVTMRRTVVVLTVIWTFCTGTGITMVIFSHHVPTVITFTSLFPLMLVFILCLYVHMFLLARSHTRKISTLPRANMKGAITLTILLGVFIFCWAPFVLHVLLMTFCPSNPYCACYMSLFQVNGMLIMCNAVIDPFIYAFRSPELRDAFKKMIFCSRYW
hMC2 receptor, sequence (Q8TCY5 whole entry partner): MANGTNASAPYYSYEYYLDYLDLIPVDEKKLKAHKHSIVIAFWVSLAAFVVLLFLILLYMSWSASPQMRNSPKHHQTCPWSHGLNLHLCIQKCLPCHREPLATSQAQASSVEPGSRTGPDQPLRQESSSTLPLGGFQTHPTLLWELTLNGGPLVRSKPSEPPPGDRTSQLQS

The test has as its target hMC2 receptor (Homo sapiens, UniProt Q01718). The experiment in a line: hMC2 membrane binding assay ([125I]ACTH (1-39) Tyr23, SPA). Also on record: scale not given here. The following applies: crude hMC2R membranes from CRE-bla-CHO-K1 cells expressing hMC2 receptor and hMRAP; [125I]ACTH (1-39) Tyr23 0.2 nM; 1.5 hours at room temperature; read-out: MC2R binding potency. As to the method: Crude membrane fractions are prepared from CRE-bla-CHO-K1 cells stably expressing hMC2 receptor and hMRAP accessory protein (Thermo Fisher). The cells are grown to 85-100% confluence on standard tissue culture dishes in GlutaMax DMEM growth media (Gibco) with following additives: 10% dialyzed FBS (Gemini), 0.1 mM NEAA (Gibco), 25 mM HEPES (Gibco), 5 μg/mL blasticidin (Goldbio), 100 μg/mL zeocin (Invitrogen), 600 μg/mL hygromycin (Goldbio). To prepare membranes, cells are scraped and collected in 1× Dulbecco's phosphate buffered saline (Corning) and then pelleted at 1000 RPM's. The cell pellet is reconstituted in membrane preparation buffer (20 mM HEPES, 6 mM MgCl2 and 1 mM EGTA, protease inhibitor tablets (Pierce) adjusted to pH 7.4), homogenized using a dounce homogenizer, and the resulting membrane fraction is pelleted by centrifugation at 12,000 RPM's. The membrane pellet is resuspended in membrane preparation buffer, snap freezed and stored at −80° C. for later use.
Binding Assay for hMC2 Antagonists Protocol:
The hMC2 membrane binding assay utilizes the following components: radiolabel [^125I]ACTH (1-39) Tyr23 (PerkinElmer), wheatgerm agglutinin coated PVT SPA beads (PerkinElmer), crude hMC2R membranes, and compounds. Briefly hMC2R membranes are incubated with SPA beads in binding assay buffer (50 mM HEPES, 5 mM MgCl2, 1 mM CaCl2, 0.2% BSA, protease inhibitor tablets (Pierce) adjusted to pH7.4) prior to assay initiation. A dose response of compound (the final concentration of compound are typically 0-10,000 nM), SPA membranes, and [^125I]ACTH (1-39) Tyr23 at a final concentration of 0.2 nM is plated in a 96-well assay plate and allowed to incubate 1.5 hours at room temperature. Assay plates are read using a Top Count NXT and Ki values for compounds are determined using a GraphPad Prism 6 non-linear regression analysis.
On to `CCOc1ncccc1-c1ccc(N2CCN(C(=O)c3ccc(OC)cc3C(F)(F)F)C[C@H]2CC)c(C(=O)NC2CN(C)C2)c1F` [Compound 1-203, 3-(2-ethoxypyridin-3-yl)-6-[(2R)-2-ethyl-4-[4-methoxy-2-(trifluoromethyl)benzoyl]piperazin-1-yl]-2-fluoro-N-(1-methylazetidin-3-yl)benzamide], for which the Ki is below 10 nM.

As for `CCOc1ccccc1-c1ccc(N2CCN(C(=O)n3ccc4cc(F)cc(C#N)c43)C[C@H]2CC)c(C(=O)N[C@@H]2CCN(C)C2)n1` [Compound 1-439, 3-[(2R)-4-(7-cyano-5-fluoro-1H-indole-1l-carbonyl)-2-ethylpiperazin-1-yl]-6-(2-ethoxyphenyl)-N-[(3R)-1-methylpyrrolidin-3-yl]pyridine-2-carboxamide], the Ki is below 10 nM.

For `CCOc1ncccc1-c1ccc(N2CCN(C(=O)N3CCC[C@H]3C(F)(F)F)C[C@H]2CC)c(C(=O)NC[C@@H]2CCN2C)n1` [Compound 1-391, 2′-ethoxy-5-[(2R)-2-ethyl-4-[(2S)-2-(trifluoromethyl)pyrrolidine-1-carbonyl]piperazin-1-yl]-N-{[(2S)-1-methylazetidin-2-yl]methyl}-[2,3′-bipyridine]-6-carboxamide], the Ki is below 10 nM.

Take `CCOc1ncccc1-c1ccc(N2CCN(C(=O)c3ccc(Cl)cc3C(F)(F)F)C[C@H]2CC)c(C(=O)NCCN)c1F` [Compound 1-69, N-(2-aminoethyl)-6-[(2R)-4-[4-chloro-2-(trifluoromethyl)benzoyl]-2-ethylpiperazin-1-yl]-3-(2-ethoxypyridin-3-yl)-2-fluorobenzamide]: the Ki is below 10 nM.

As for `CCOc1ccccc1-c1ccc(N2CCN(C(=O)[C@H]3CC[C@@H](C(F)(F)F)CC3)C[C@H]2CC)c(C(=O)N[C@@H]2CCN(C)C2)n1` [Compound 1-336, 6-(2-ethoxyphenyl)-3-[(2R)-2-ethyl-4-[cis-4-(trifluoromethyl)cyclohexanecarbonyl]piperazin-1-yl]-N-[(3R)-1-methylpyrrolidin-3-yl]pyridine-2-carboxamide], the Ki was below 10 nM.

For `CCOc1ncccc1-c1ccc(N2CCN(C(=O)c3ccc(Cl)cc3C(F)(F)F)C[C@H]2CC)c(C(=O)NC[C@@H]2CCN2C)n1` [Compound 1-232, 5-[(2R)-4-[4-chloro-2-(trifluoromethyl)benzoyl]-2-ethylpiperazin-1-yl]-2′-ethoxy-N-{[(2S)-1-methylazetidin-2-yl]methyl}-[2,3′-bipyridine]-6-carboxamide], the Ki was below 10 nM.

With `CCOc1ccccc1-c1ccc(N2CCN(C(=O)n3ccc4cccc(Cl)c43)C[C@H]2CC)c(C(=O)N[C@@H]2CCN(C)C2)n1` [Compound 1-431, 3-[(2R)-4-(7-chloro-1H-indole-1-carbonyl)-2-ethylpiperazin-1-yl]-6-(2-ethoxyphenyl)-N-[(3R)-1-methylpyrrolidin-3-yl]pyridine-2-carboxamide], the Ki is below 10 nM.

For `CCOc1ncccc1-c1ccc(N2CCN(C(=O)c3ccc(Cl)cc3C(F)F)C[C@H]2CC)c(C(=O)NCCNC)n1` [Compound 1-213, 5-[(2R)-4-[4-chloro-2-(difluoromethyl)benzoyl]-2-ethylpiperazin-1-yl]-2′-ethoxy-N-[2-(methylamino)ethyl]-[2,3′-bipyridine]-6-carboxamide], the Ki was below 10 nM.

Take `CCOc1ccc(C(=O)N2CCN(c3ccc(-c4cccnc4OCC)nc3C(=O)NCCNC)[C@H](CC)C2)c(C(F)(F)F)n1` [Compound 1-181, 2′-ethoxy-5-[(2R)-4-[6-ethoxy-2-(trifluoromethyl)pyridine-3-carbonyl]-2-ethylpiperazin-1-yl]-N-[2-(methylamino)ethyl]-[2,3′-bipyridine]-6-carboxamide]: the Ki was below 10 nM.

As for `CCOc1ncccc1-c1ccc(N2CCN(C(=O)N3CCC[C@H]3C(F)(F)F)C[C@H]2CC)c(C(=O)N[C@H]2CCN(C)C2)n1` [Compound 1-373, 2′-ethoxy-5-[(2R)-2-ethyl-4-[(2S)-2-(trifluoromethyl)pyrrolidine-1-carbonyl]piperazin-1-yl]-N-[(3S)-1-methylpyrrolidin-3-yl]-[2,3′-bipyridine]-6-carboxamide], the Ki was below 10 nM.

In the case of `CCOc1ncccc1-c1ccc(N2CCN(C(=O)c3ccc(OC)nc3C(F)(F)F)C[C@H]2CC)c(C(=O)N[C@@H]2CN(C)C[C@H]2F)n1` [Compound 1-290, 2′-ethoxy-5-[(2R)-2-ethyl-4-[6-methoxy-2-(trifluoromethyl)pyridine-3-carbonyl]piperazin-1-yl]-N-[(3R,4R)-4-fluoro-1-methylpyrrolidin-3-yl]-[2,3′-bipyridine]-6-carboxamide], the Ki is below 10 nM.

With `CCOc1ncccc1-c1ccc(N2CCN(C(=O)c3ccc(F)cc3Cl)C[C@H]2CC)c(C(=O)N[C@@H]2CCNC2)c1F` [Compound 1-73, 6-[(2R)-4-(2-chloro-4-fluorobenzoyl)-2-ethylpiperazin-1-yl]-3-(2-ethoxypyridin-3-yl)-2-fluoro-N-[(3R)-pyrrolidin-3-yl]benzamide], the Ki is below 10 nM.

As for `CCOc1ncccc1-c1ccc(N2CCN(C(=O)OC(c3ccccc3)C(C)(C)C)C[C@H]2CC)c(C(=O)N[C@@H]2CCN(C)C2)n1` (stereo partly drawn) [Compound 1-408, 2,2-dimethyl-1-phenylpropyl (3R)-4-(2′-ethoxy-6-{[(3R)-1-methylpyrrolidin-3-yl]carbamoyl}-[2,3′-bipyridin]-5-yl)-3-ethylpiperazine-1-carboxylate], the Ki was below 10 nM.

`CCOc1cnccc1-c1ccc(N2CCN(C(=O)c3ccc(C(F)(F)F)cc3Cl)C[C@H]2CC)c(C(=O)NCCN)c1` [Compound 1-33, N-(2-aminoethyl)-2-[(2R)-4-[2-chloro-4-(trifluoromethyl)benzoyl]-2-ethylpiperazin-1-yl]-5-(3-ethoxypyridin-4-yl)benzamide]: the Ki lay within 10 to 100 nM.

On to `CCOc1ncccc1-c1ccc(N2CCN(C(=O)c3ccc(Cl)cc3C(F)(F)F)C[C@H]2CC)c(C(=O)NCCNC)c1F` [Compound 1-95, 6-[(2R)-4-[4-chloro-2-(trifluoromethyl)benzoyl]-2-ethylpiperazin-1-yl]-3-(2-ethoxypyridin-3-yl)-2-fluoro-N-[2-(methylamino)ethyl]benzamide], for which the Ki is below 10 nM.

For the compound `CCOc1ncccc1-c1ccc(N2CCN(C(=O)C3(C(F)(F)F)CCCC3)C[C@H]2CC)c(C(=O)NCC2CN(C)C2)n1` [Compound 1-313, 2′-ethoxy-5-[(2R)-2-ethyl-4-[1-(trifluoromethyl)cyclopentanecarbonyl]piperazin-1-yl]-N-[(1-methylazetidin-3-yl)methyl]-[2,3′-bipyridine]-6-carboxamide], the Ki is below 10 nM.

Regarding `CCOc1ncccc1-c1ccc(N2CCN(C(=O)c3ccc(Cl)cc3C(F)(F)F)C[C@H]2CC)c(C(=O)NC[C@H]2CCN2)c1` [Compound 1-102, N-{[(2R)-azetidin-2-yl]methyl}-2-[(2R)-4-[4-chloro-2-(trifluoromethyl)benzoyl]-2-ethylpiperazin-1-yl]-5-(2-ethoxypyridin-3-yl)benzamide], the Ki was below 10 nM.

For the compound `CCOc1ncccc1-c1ccc(N2CCN(C(=O)C3(C(F)(F)F)CCCC3)C[C@H]2CC)c(C(=O)NC[C@H]2CCN2C)n1` [Compound 1-330, 2′-ethoxy-5-[(2R)-2-ethyl-4-[1-(trifluoromethyl)cyclopentanecarbonyl]piperazin-1-yl]-N-{[(2R)-1-methylazetidin-2-yl]methyl}-[2,3′-bipyridine]-6-carboxamide], the Ki was below 10 nM.

For `CCOc1ncccc1-c1ccc(N2CCN(C(=O)c3ccc(F)cc3C(F)F)C[C@H]2CC)c(C(=O)NCCNC)c1F` [Compound 1-177, 6-[(2R)-4-[2-(difluoromethyl)-4-fluorobenzoyl]-2-ethylpiperazin-1-yl]-3-(2-ethoxypyridin-3-yl)-2-fluoro-N-[2-(methylamino)ethyl]benzamide], the Ki is below 10 nM.

Regarding `CCOc1ccccc1-c1ccc(N2CCN(C(=O)n3ccc4cc(F)cc(Cl)c43)C[C@H]2CC)c(C(=O)N[C@@H]2CCN(C)C2)n1` [Compound 1-430, 3-[(2R)-4-(7-chloro-5-fluoro-1H-indole-1-carbonyl)-2-ethylpiperazin-1-yl]-6-(2-ethoxyphenyl)-N-[(3R)-1-methylpyrrolidin-3-yl]pyridine-2-carboxamide], the Ki was below 10 nM.

Regarding `CCOc1ncccc1-c1ccc(N2CCN(C(=O)c3ccc(Cl)cc3C(F)(F)F)C[C@H]2CC)c(C(=O)NC[C@@H]2CCCN2)c1` [Compound 1-98, 2-[(2R)-4-[4-chloro-2-(trifluoromethyl)benzoyl]-2-ethylpiperazin-1-yl]-5-(2-ethoxypyridin-3-yl)-N-{[(2S)-pyrrolidin-2-yl]methyl}benzamide], the Ki is below 10 nM.
